Measured values reported in paper PMC11078746 (Nature, 2024).
Where “and” joins values, the source holds several entries; their conditions need not be identical. Equal values may be shown once.

Test: Mouse body weight, SW48 xenograft study with HRO761
Assay type: in vivo
Description: All animal studies were conducted in accordance with ethics and procedures covered by permit BS-2275 and BS-1975 issued by the Kantonales Veterinäramt Basel-Stadt and in strict adherence to guidelines of the Eidgenössisches Tierschutzgesetz and the Eidgenössische Tierschutzverordnung, Switzerland. All animal studies were approved by the internal ethics committee. All animals had access to food and water ad libitum and were identified with transponders. They were housed in a specific-pathogen-free facility in IVC racks under a 12 h–12 h light–dark cycle. To establish cell-line-derived xenograft models, 6–7-week-old female athymic nude (Crl:NU(NCr)-Foxn1^nu) or SCID-BEIGE (CB17.Cg-PrkdcscidLystbg-J/Crl) mice from Charles River were engrafted subcutaneously with 5 million tumour cells in HBSS (H6648, Sigma-Aldrich). For SNU-407, Lovo, IM95, RL95.2, Ishikawa and IGROV-1, the cells were concentrated in 50% Matrigel (354234, Corning). Patient-derived xenografts were induced and expanded by transplantation as previously described. […] For the efficacy experiment, mice were randomized into groups (n = 5–6) for a mean tumour size of 100–150 mm^3. […] Blood samples were collected on day 7 and 91. […] Tumour responses are reported with the measures of tumour volumes from the treatment start. […] Animals were randomized (n = 3) and tumour samples were collected at 0, 1, 4, 8 and 24 h on the first day and then collected 4 h after the last treatment on day 3, 8, 10, 14 (including a 24 h timepoint), 17 and 21. Tumours were excised, weighed, either frozen in liquid nitrogen and cryogenic dry pulverized with the CryoPrep system (model CP-02, Covaris) or processed to FFPE after fixation. […] On day 12, blood samples were collected for PK analysis. On the last day (3 h after the last treatment), tumours were excised, weighed, frozen in liquid nitrogen and cryogenic dry pulverized for PD analysis.

[1] = HRO761 20mg/kg, day 0 post 1st dose
[2] = HRO761 40mg/kg, day 0 post 1st dose
[3] = HRO761 60mg/kg, day 0 post 1st dose

## CCc1c(N2CCN(C(=O)c3ncnc(C)c3O)CC2)c(=O)n2nc(C3=CCOCC3)nc2n1CC(=O)Nc1ccc(C(F)(F)F)cc1Cl [HRO761]
[1]
  Delta BW change, individual mouse: 0%
  Mean DBW: 0.00%
HRO761 20mg/kg, day 3 post 1st dose
  Mean DBW: -0.35%
HRO761 20mg/kg, day 3 post 1st dose, 20 mg/kg
  Delta BW change, individual mouse: 1.24% and 0% (2×) and -0.78% and -2.23%
HRO761 20mg/kg, day 7 post 1st dose
  Mean DBW: 0.52%
HRO761 20mg/kg, day 7 post 1st dose, 20 mg/kg
  Delta BW change, individual mouse: 2.07% and 1.26% and 1.16% and -1.17% and -0.74%
HRO761 20mg/kg, day 10 post 1st dose
  Mean DBW: 1.67%
HRO761 20mg/kg, day 10 post 1st dose, 20 mg/kg
  Delta BW change, individual mouse: 3.32% and 6.28% and -1.54% and -1.56% and 1.86%
HRO761 20mg/kg, day 14 post 1st dose
  Mean DBW: 1.33%
HRO761 20mg/kg, day 14 post 1st dose, 20 mg/kg
  Delta BW change, individual mouse: 1.66% and 5.86% and -2.32% and -0.78% and 2.23%
HRO761 20mg/kg, day 17 post 1st dose
  Mean DBW: 2.56%
HRO761 20mg/kg, day 21 post 1st dose
  Mean DBW: 4.75%
HRO761 20mg/kg, day 24 post 1st dose
  Mean DBW: 2.97%
HRO761 20mg/kg, day 28 post 1st dose
  Mean DBW: 3.11%
HRO761 20mg/kg, day 31 post 1st dose
  Mean DBW: 2.34%
HRO761 20mg/kg, day 35 post 1st dose
  Mean DBW: 3.43%
HRO761 20mg/kg, day 38 post 1st dose
  Mean DBW: 2.26%
HRO761 20mg/kg, day 42 post 1st dose
  Mean DBW: 3.84%
HRO761 20mg/kg, day 45 post 1st dose
  Mean DBW: 3.81%
[2]
  Delta BW change, individual mouse: 0%
  Mean DBW: 0.00%
HRO761 40mg/kg, day 3 post 1st dose
  Mean DBW: -0.77%
HRO761 40mg/kg, day 3 post 1st dose, 40 mg/kg
  Delta BW change, individual mouse: -0.91% and 0.87% and -5.78% and -3.41% and 5.36%
HRO761 40mg/kg, day 7 post 1st dose
  Mean DBW: 2.11%
HRO761 40mg/kg, day 7 post 1st dose, 40 mg/kg
  Delta BW change, individual mouse: 3.18% and 5.63% and -3.25% and -1.14% and 6.13%
HRO761 40mg/kg, day 10 post 1st dose
  Mean DBW: 1.41%
HRO761 40mg/kg, day 10 post 1st dose, 40 mg/kg
  Delta BW change, individual mouse: 4.09% and 1.73% and -2.17% and 2.27% and 1.15%
HRO761 40mg/kg, day 14 post 1st dose
  Mean DBW: 4.08%
HRO761 40mg/kg, day 14 post 1st dose, 40 mg/kg
  Delta BW change, individual mouse: 5% and 7.36% and -0.36% and 4.17% and 4.21%
HRO761 40mg/kg, day 17 post 1st dose
  Mean DBW: 3.43%
HRO761 40mg/kg, day 21 post 1st dose
  Mean DBW: 5.66%
HRO761 40mg/kg, day 24 post 1st dose
  Mean DBW: 6.90%
HRO761 40mg/kg, day 28 post 1st dose
  Mean DBW: 6.44%
HRO761 40mg/kg, day 31 post 1st dose
  Mean DBW: 5.60%
HRO761 40mg/kg, day 35 post 1st dose
  Mean DBW: 6.99%
HRO761 40mg/kg, day 38 post 1st dose
  Mean DBW: 6.65%
HRO761 40mg/kg, day 42 post 1st dose
  Mean DBW: 6.89%
HRO761 40mg/kg, day 45 post 1st dose
  Mean DBW: 7.16%
HRO761 40mg/kg, day 49 post 1st dose
  Mean DBW: 8.78%
HRO761 40mg/kg, day 52 post 1st dose
  Mean DBW: 8.33%
HRO761 40mg/kg, day 56 post 1st dose
  Mean DBW: 7.63%
HRO761 40mg/kg, day 59 post 1st dose
  Mean DBW: 8.29%
HRO761 40mg/kg, day 63 post 1st dose
  Mean DBW: 9.98%
HRO761 40mg/kg, day 66 post 1st dose
  Mean DBW: 10.38%
HRO761 40mg/kg, day 70 post 1st dose
  Mean DBW: 8.92%
HRO761 40mg/kg, day 73 post 1st dose
  Mean DBW: 8.55%
HRO761 40mg/kg, day 76 post 1st dose
  Mean DBW: 11.97%
HRO761 40mg/kg, day 79 post 1st dose
  Mean DBW: 7.46%
HRO761 40mg/kg, day 83 post 1st dose
  Mean DBW: 7.38%
HRO761 40mg/kg, day 86 post 1st dose
  Mean DBW: 9.81%
[3]
  Delta BW change, individual mouse: 0%
  Mean DBW: 0.00%
HRO761 60mg/kg, day 3 post 1st dose
  Mean DBW: -1.52%
HRO761 60mg/kg, day 3 post 1st dose, 60 mg/kg
  Delta BW change, individual mouse: -2.98% and 1.63% and -3.35% and -4.6% and 1.71%
HRO761 60mg/kg, day 7 post 1st dose
  Mean DBW: -1.16%
HRO761 60mg/kg, day 7 post 1st dose, 60 mg/kg
  Delta BW change, individual mouse: -1.7% and -3.27% and 1.26% and -3.35% and 1.28%
HRO761 60mg/kg, day 10 post 1st dose
  Mean DBW: -1.23%
HRO761 60mg/kg, day 10 post 1st dose, 60 mg/kg
  Delta BW change, individual mouse: -0.43% and -6.94% and 7.11% and -5.02% and -0.85%
HRO761 60mg/kg, day 14 post 1st dose
  Mean DBW: 0.014%
HRO761 60mg/kg, day 14 post 1st dose, 60 mg/kg
  Delta BW change, individual mouse: -0.43% and -2.86% and 6.69% and -4.18% and 0.85%
HRO761 60mg/kg, day 17 post 1st dose
  Mean DBW: -0.23%
HRO761 60mg/kg, day 21 post 1st dose
  Mean DBW: 1.03%
